Data on 52 molecules can be found in PMC7251097, “Aspartate/asparagine-β-hydroxylase: a high-throughput mass spectrometric assay for discovery of small molecule inhibitors” (Scientific Reports, 2020).

Structures can show the parent of a compound that is named as a salt. Where two headings read alike, the source gives them in different places.

The assay deals with T1, His6-AspH315–758 (human aspartate/asparagine-β-hydroxylase, AspH) (Homo sapiens, UniProt Q12797).
T1 construct: N-Terminally His6-tagged human AspH315–758 (His6-AspH315–758) was produced in E. coli BL21 (DE3) cells; made in house; host or cells: E. coli BL21 (DE3), pET-28a(+) vector
T1 sequence (Q12797 315-758): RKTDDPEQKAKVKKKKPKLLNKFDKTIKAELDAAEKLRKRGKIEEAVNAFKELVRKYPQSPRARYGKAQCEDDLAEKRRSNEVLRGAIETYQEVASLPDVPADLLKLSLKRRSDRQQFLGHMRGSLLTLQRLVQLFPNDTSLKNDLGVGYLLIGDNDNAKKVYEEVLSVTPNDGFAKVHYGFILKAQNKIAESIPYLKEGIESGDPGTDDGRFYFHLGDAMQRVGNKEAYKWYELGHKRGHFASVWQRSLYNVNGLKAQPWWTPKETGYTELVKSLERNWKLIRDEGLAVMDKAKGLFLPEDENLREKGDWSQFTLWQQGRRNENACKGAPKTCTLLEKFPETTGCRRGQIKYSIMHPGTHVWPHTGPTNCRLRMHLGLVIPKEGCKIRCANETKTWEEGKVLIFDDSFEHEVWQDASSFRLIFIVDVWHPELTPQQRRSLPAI
The experiment in a line: SPE-MS AspH inhibition assay (LOPAC screen at fixed 20 μM and IC50 dose-response), hydroxylation of cyclic peptide hFX-CP101–119. Particulars: for Plate 5 (% inhibition) / Plate 5 (% conversion): plate 5 (Pfitzer), test compounds at fixed 20 μM; for Plate 5 (% conversion): mean conversion DMSO 32.88. It counts as biochemical.

The mark [1] stands for this setting: LOPAC compound at 20uM, plate 3, conversion of substrate peptide.
Setting [2] is: LOPAC Plate 4, compound at 20 uM.
Setting [3] is: LOPAC Plate 4, compound at 20 uM, substrate conversion.
[4] abbreviates: LOPAC Plate 4, compound at 20 uM, read-out: % inhibition.

For the molecule `O=C1NCCc2[nH]c(-c3ccncc3)cc21` [PHA 767491], the “Plate 5 (% inhibition)” value was 26.12% and the “Plate 5 (% conversion)” value amounted to 27.42%.

With `O=C(N[C@H]1CN2CCC1CC2)c1cc2ccoc2cn1` [PHA-543613], the “Plate 5 (% inhibition)” value was found to be 12.80% and the “Plate 5 (% conversion)” value worked out at 31.96%. Moreover, under setting [1], the “Plate 3 (% conversion)” value is recorded as 37.15%. In the case of `Cc1[nH]c(/C=C2\C(=O)Nc3ccc(S(=O)(=O)Cc4c(Cl)cccc4Cl)cc32)c(C)c1C(=O)N1CCC[C@@H]1CN1CCCC1` [PHA-665752], the “Plate 5 (% inhibition)” value was -100.36% and the “Plate 5 (% conversion)” value is 70.47%. For `CCC(C)N(C)C(=O)c1cc2ccccc2c(-c2ccccc2Cl)n1` (stereo not drawn) [PK 11195], under “LOPAC compound at fixed 20 uM, plate 1, normalised to DMSO and 2,4-PDCA controls”, the “Plate 1 (% inhibition)” value is recorded as -10.48%. Moreover, the “Plate 1 (% conversion)” value (LOPAC compound at fixed 20 uM, substrate conversion, plate 1) came to 39.39%. As to `Nc1nc2c(ncn2CCOCP(=O)(O)O)c(=O)[nH]1` [PMEG hydrate], under setting [1], the “Plate 3 (% conversion)” value was found to be 30.37%. Broadly, the % inhibition is the relative decrease from the control value, in per cent. `Cc1nc(N=Nc2ccc(S(=O)(=O)O)cc2S(=O)(=O)O)c(COP(=O)(O)O)c(C=O)c1O` [PPADS]: the “% inhibition” value under setting [2] stood at 84.93%. The “% conversion” value under setting [3] came to 7.48%. For `O=C(OCCN1CCOCC1)C1(c2ccccc2)CCCCC1` [PRE-084], under setting [1], the “Plate 3 (% conversion)” value was 38.46%. For `CC(=O)c1cccc(N[C@H]2[C@H](N)[C@@](NC(=O)N(C)C)([C@H](C)O)[C@@](C)(O)[C@@]2(O)COC(=O)c2c(C)cccc2O)c1` [Pactamycin], the “Plate 5 (% inhibition)” value is given as 21.27% and the “Plate 5 (% conversion)” value is 29.07%. Take `CC(=O)O[C@H]1C[C@@H]2CC[C@@H]3[C@H](CC[C@@]4(C)[C@H]3C[C@H]([N+]3(C)CCCCC3)[C@@H]4OC(C)=O)[C@@]2(C)C[C@@H]1[N+]1(C)CCCCC1` [Pancuronium bromide]: the “Plate 3 (% conversion)” value was 37.93%. Take `C#CCN(C)Cc1ccccc1` [Pargyline hydrochloride]: the “% conversion” value under setting [3] was 31.34%. What is called inhibition is the change of the read-out against control, counted positive when it falls. In the case of `NC[C@@H]1O[C@H](O[C@H]2[C@@H](O)[C@H](O[C@@H]3[C@@H](O)[C@H](N)C[C@H](N)[C@H]3O[C@H]3O[C@H](CO)[C@@H](O)[C@H](O)[C@H]3N)O[C@@H]2CO)[C@H](N)[C@@H](O)[C@@H]1O` [Paromomycin sulfate], the “% conversion” value under setting [3] turned out to be 37.25%. Under setting [4], the inhibition at 20 µM is -2.28%. In the case of `N=C(N)c1ccc(OCCCCCOc2ccc(C(=N)N)cc2)cc1` [Pentamidine isethionate], the “Plate 3 (% conversion)” value under setting [1] is listed as 37.75%. With `C[N+]1(CCCCC[N+]2(C)CCCC2)CCCC1.O=C([O-])C(O)C(O)C(=O)O.O=C([O-])C(O)C(O)C(=O)O` [Pentolinium di[L(+)-tartrate]], the “Plate 3 (% conversion)” value under setting [1] is recorded as 9.60%. For `CCCN1C[C@H](CSC)C[C@@H]2c3cccc4[nH]cc(c34)C[C@H]21` [Pergolide methanesulfonate], under setting [3], the “% conversion” value is given as 40.48%. Besides, the inhibition at 20 µM under setting [4] is -11.8%. `OCCN1CCN(CCCN2c3ccccc3Sc3ccc(Cl)cc32)CC1` [Perphenazine]: the “Plate 3 (% conversion)” value under setting [1] amounted to 48.99%.

For `NCC(CP(=O)(O)O)c1ccc(Cl)cc1` (stereo not drawn) [Phaclofen], the “% conversion” value stood at 34.58%. Further, under “20 µM”, the “% inhibition” value is recorded as 5.54%. In the case of `NC(=Nc1ccccc1)NC(=O)c1nc(Cl)c(N)nc1N` [Phenamil methanesulfonate], the “% conversion” value under setting [3] was 39.99%. Further, the inhibition at 20 µM under setting [4] is -10.3%. Turning to `NNCCc1ccccc1` [Phenelzine sulfate], the inhibition at 20 µM is -1.74%. Regarding `CN(C)CCC(c1ccccc1)c1ccccn1` (stereo not drawn) [Pheniramine maleate], the “% conversion” value under setting [3] is given as 37.25%. Further, the inhibition at 20 µM under setting [4] is -2.28%. On to `CN1CC[C@@]2(C)c3cc(OC(=O)Nc4ccccc4)ccc3N(C)[C@@H]12` [Phenserine], for which the “Plate 2 (% conversion)” value is on record as 38.49%. Further, where the note is “read-out: Plate 2 (% inhibition)”, the inhibition at 20 µM was -7.56%. Take `Cc1ccc(N(CC2=NCCN2)c2cccc(O)c2)cc1` [Phentolamine mesylate]: under setting [3], the “% conversion” value came out at 38.87%. Also, the inhibition at 20 µM under setting [4] is -7.04%. Taken in the same sequence, the figures for `CCCCC1C(=O)N(c2ccccc2)N(c2ccccc2)C1=O` [Phenylbutazone] were 37.63% and -3.41%. For `CNC[C@H](O)c1cccc(O)c1` [Phenylephrine hydrochloride], the “Plate 3 (% conversion)” value under setting [1] is given as 35.74%. In the case of `O=C(CCc1ccc(O)cc1)c1c(O)cc(O)cc1O` [Phloretin], the “% conversion” value under setting [3] amounted to 29.69%. In the case of `CCCCCCCCCCCCCC(=O)O[C@@H]1[C@@H](C)[C@@]2(O)[C@@H](C=C(CO)C[C@]3(O)C(=O)C(C)=C[C@@H]23)[C@@H]2C(C)(C)[C@]12OC(C)=O` [Phorbol 12-myristate 13-acetate], the “% conversion” value turned out to be 39.27%.

Consider `O=C(O)CP(=O)(O)O` [Phosphonoacetic acid], for which the “% conversion” value under setting [3] is given as 17.53%. Under setting [4], the inhibition at 20 µM stood at 55.5%.

On to `CC(C)C[C@H](NP(=O)([O-])O[C@H]1O[C@H](C)[C@@H](O)[C@H](O)[C@@H]1O)C(=O)N[C@@H](Cc1c[nH]c2ccccc12)C(=O)[O-].[Na+].[Na+]` [Phosphoramidon disodium], for which the “% conversion” value came to 33.86%.

Turning to `Oc1cc(O)cc(/C=C/c2ccc(O)c(O)c2)c1` [Piceatannol, reference compound], under “AspH activity, fixed compound concentration 20 μM, initial LOPAC screen, 0.5%v/v DMSO, read-out: Inhibition at 20 µM [%]”, the inhibition at 20 µM is 99.9%. Also, the “Plate 3 (% conversion)” value under setting [1] was determined as 2.48%. Consider `COc1ccc(C(=O)NCc2cccnc2)cc1C(=O)NCc1cccnc1` [Picotamide], for which the “% conversion” value under setting [3] was determined as 30.17%.

Take `NS(=O)(=O)C#Cc1ccccc1` [Pifithrin-mu]: the “% conversion” value under setting [3] is listed as 31.04%.

On to `CC(N/C(=N\C#N)Nc1ccncc1)C(C)(C)C` (stereo not drawn) [Pinacidil], for which the “% conversion” value under setting [3] was 37.72%. Turning to `COc1cc(/C=C/C(=O)N2CCC=CC2=O)cc(OC)c1OC` [Piperlongumine], the “Plate 3 (% conversion)” value was determined as 35.88%. With `Cc1nc2ccccn2c(=O)c1CCN1CCC(C(=O)c2ccc(F)cc2)CC1` [Pirenperone], under setting [3], the “% conversion” value is 26.88%.

As for `CN1CCN(CC(=O)N2c3ccccc3C(=O)Nc3cccnc32)CC1` [Pirenzepine dihydrochloride], under setting [3], the “% conversion” value was found to be 38.08%. Also, the inhibition at 20 µM under setting [4] was -4.73%. Turning to `Cc1ccc(=O)n(-c2ccccc2)c1` [Pirfenidone], the “Plate 3 (% conversion)” value under setting [1] came out at 40.30%. With `O=C(O)/C=C\C(=O)O.c1cnc(N2CCN(Cc3ccc4c(c3)OCO4)CC2)nc1` [Piribedil maleate], the “% inhibition” value under setting [2] is recorded as -4.83%. Under setting [3], the “% conversion” value is reported as 38.12%. For the molecule `CN1C(C(=O)Nc2ccccn2)=C(O)c2ccccc2S1(=O)=O` [Piroxicam], under setting [1], the “Plate 3 (% conversion)” value is on record as 39.26%. Consider `COc1cc([C@@H]2c3cc4c(cc3[C@H](O)[C@H]3COC(=O)[C@H]23)OCO4)cc(OC)c1OC` [Podophyllotoxin], for which the “Plate 3 (% conversion)” value was determined as 35.15%.

On to `CCCN[C@H]1CCc2nc(N)sc2C1` [Pramipexole dihydrochloride], for which, under setting [3], the “% conversion” value was 39.77%. Consider `O=C(C1CCCCC1)N1CC(=O)N2CCc3ccccc3C2C1` (stereo not drawn) [Praziquantel], for which the “Plate 3 (% conversion)” value under setting [1] is listed as 41.06%. With `COc1cc2nc(N3CCN(C(=O)c4ccco4)CC3)nc(N)c2cc1OC` [Prazosin hydrochloride], the “% conversion” value under setting [3] came to 34.08%.

Regarding `CC(=O)[C@H]1CC[C@H]2[C@@H]3CC=C4C[C@@H](OS(=O)(=O)[O-])CC[C@]4(C)[C@H]3CC[C@]12C.[Na+]` [Pregnenolone sulfate sodium], the “% conversion” value is listed as 34.01%. Besides, the “% inhibition” value (20 µM) came to 7.19%.

Regarding `CCCNC(C)C(=O)Nc1ccccc1C` (stereo not drawn) [Prilocaine hydrochloride], the “% conversion” value under setting [3] is listed as 24.92%.

As to `CCC1(c2ccccc2)C(=O)NCNC1=O` [Primidone], under setting [3], the “% conversion” value came out at 31.08%. Consider `CCN(CC)CCNC(=O)c1ccc(N)cc1` [Procainamide hydrochloride], for which the “% conversion” value under setting [3] is 38.98%. In addition, the inhibition at 20 µM under setting [4] is -7.36%.

`CCN(CC)CCOC(=O)c1ccc(N)cc1` [Procaine hydrochloride]: the “% conversion” value under setting [3] was found to be 34.46%. Also, the inhibition at 20 µM under setting [4] amounted to 5.88%. On to `CN1CCN(CCCN2c3ccccc3Sc3ccc(Cl)cc32)CC1` [Prochlorperazine dimaleate], for which the “% conversion” value under setting [3] is on record as 48.18%. With `CC(=O)[C@H]1CC[C@H]2[C@@H]3CCC4=CC(=O)CC[C@]4(C)[C@H]3CC[C@]12C` [Progesterone], under setting [1], the “Plate 3 (% conversion)” value is listed as 43.81%. For the molecule `CCCN(CCC)C(=O)C(CCC(=O)O)NC(=O)c1ccccc1` (stereo not drawn) [Proglumide], under setting [1], the “Plate 3 (% conversion)” value amounted to 27.88%. Regarding `CN(C)CCCN1c2ccccc2Sc2ccccc21` [Promazine hydrochloride], the “% conversion” value under setting [3] stood at 39.62%. Further, the inhibition at 20 µM under setting [4] is -9.23%.

Regarding `CC(CN1c2ccccc2Sc2ccccc21)N(C)C` (stereo not drawn) [Promethazine hydrochloride], the “Plate 3 (% conversion)” value under setting [1] is 42.09%. As to `CC(C)[N+](C)(CCOC(=O)C1c2ccccc2Oc2ccccc21)C(C)C` [Propantheline bromide], the “% conversion” value under setting [3] is reported as 33.19%.
